Data taken from ChEMBL document CHEMBL2074034, “Characterization of cloned mouse Na+/taurocholate cotransporting polypeptide by transient expression in COS-7 cells” (Biosci Biotechnol Biochem, 2002).

How the values were obtained:
Assay type in all cases: functional, cell-based
Details in all cases: monkey, cos-7, 72 µM
[1] = biological target: T1, Hepatic sodium/bile acid cotransporter (Mus musculus, UniProt O08705); test: TP_TRANSPORTER: inhibition of Taurocholate uptake (Taurocholate: 0.72 uM, CDCA: 72 uM) in Ntcp-expressing COS-7 cells
T1 sequence (O08705 whole entry): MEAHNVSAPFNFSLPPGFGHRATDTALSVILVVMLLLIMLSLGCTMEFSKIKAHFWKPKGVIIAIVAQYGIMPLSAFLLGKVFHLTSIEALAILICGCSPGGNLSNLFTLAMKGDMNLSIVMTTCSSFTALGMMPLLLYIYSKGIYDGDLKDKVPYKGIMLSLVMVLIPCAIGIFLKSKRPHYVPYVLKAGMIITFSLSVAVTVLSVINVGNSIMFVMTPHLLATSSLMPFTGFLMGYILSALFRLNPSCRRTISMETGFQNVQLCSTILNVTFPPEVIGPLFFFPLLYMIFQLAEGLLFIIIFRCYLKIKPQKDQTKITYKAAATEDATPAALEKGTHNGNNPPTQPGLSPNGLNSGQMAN

[2] = biological target: T1, Hepatic sodium/bile acid cotransporter; test: TP_TRANSPORTER: inhibition of Taurocholate uptake (Taurocholate: 0.72 uM, Deoxycholate: 72 uM) in Ntcp-expressing COS-7 cells
[3] = biological target: T1, Hepatic sodium/bile acid cotransporter; test: TP_TRANSPORTER: inhibition of Taurocholate uptake (Taurocholate: 0.72 uM, GC: 72 uM) in Ntcp-expressing COS-7 cells
[4] = biological target: T1, Hepatic sodium/bile acid cotransporter; test: TP_TRANSPORTER: inhibition of Taurocholate uptake (Taurocholate: 0.72 uM, Lithocholate: 72 uM) in Ntcp-expressing COS-7 cells

Q: For C[C@H](CCC(=O)O)[C@H]1CC[C@H]2[C@@H]3[C@H](O)C[C@@H]4C[C@H](O)CC[C@]4(C)[C@H]3CC[C@]12C [CHENODIOL], which Activity [1] is on record?
A: inhibitor [(at a rough estimate) 20 % of control]

Q: With C[C@H](CCC(=O)O)[C@H]1CC[C@H]2[C@@H]3CC[C@@H]4C[C@H](O)CC[C@]4(C)[C@H]3C[C@H](O)[C@]12C [DEOXYCHOLIC ACID] as the compound, how does the Activity [2] read?
A: inhibitor [(at a rough estimate) 20 % of control]

Q: C[C@H](CCC(=O)NCC(=O)O)[C@H]1CC[C@H]2[C@@H]3[C@H](O)C[C@@H]4C[C@H](O)CC[C@]4(C)[C@H]3C[C@H](O)[C@]12C [GLYCOCHOLIC ACID] was tested. Which Activity [3] did it give?
A: inhibitor [(at a rough estimate) 40 % of control]

Q: Which Activity [4] does the source give for C[C@H](CCC(=O)O)[C@H]1CC[C@H]2[C@@H]3CC[C@@H]4C[C@H](O)CC[C@]4(C)[C@H]3CC[C@]12C [LITHOCHOLIC ACID] here?
A: inhibitor [(at a rough estimate) 5 % of control]
